According to patent publication US20100285957A1, “THIAZOLYLOXYPHENYLAMIDINES OR THIADIAZOLYLOXYPHENYLAMIDINES AND THEIR USE AS FUNGICIDES” (Bayer CropScience AG, priority 2007, published 2010):
Where two headings read alike, the source gives them in different places.

Key:
[1] = physchem
[2] = test system: Sphaerotheca fuliginea; test: Sphaerotheca test (cucumber)/protective; assay type: in vivo; details: Podosphaera fuliginea, 168 h, 100 ppm active substance, protective, evaluation 7 days after inoculation, read-out: degree of effectiveness
Procedure: Sphaerotheca Test (Cucumber)/Protective [table] To prepare a suitable active substance composition, 1 part by weight of active substance is mixed with the given amounts of solvents and emulsifier and the concentrate is diluted to the desired concentration using water. For the testing of protective effectiveness, young plants are sprayed with the active substance composition in the application rate given. After the spray coating has been dried on, the plants are inoculated with an aqueous suspension of spores of Sphaerotheca fuliginea. The plants are then placed in a greenhouse at approximately 23° C. and a relative humidity of approximately 70%. Evaluation is carried out 7 days after the inoculation. In this connection, 0% means a degree of effectiveness corresponding to that of the control, while a degree of effectiveness of 100% means that no infestation is observed.

[3] = test system: Puccinia recondita var. tritici; test: Puccinia test (wheat)/protective; assay type: in vivo; details: 240 h, 1000 ppm active substance, protective, evaluation 10 days after inoculation, read-out: degree of effectiveness
Procedure: Puccinia Test (Wheat)/Protective
(§1) To prepare a suitable active substance composition, 1 part by weight of active substance is mixed with the given amounts of solvent and emulsifier and the concentrate is diluted to the desired concentration using water.
For the testing of protective effectiveness, young plants are sprayed with the active substance composition in the application rate given. After the spray coating has been dried on, the plants are sprayed with a suspension of the conidia of Puccinia recondita var. tritici. The plants remain in an incubation chamber at 20° C. and 100% relative humidity for 48 hours.
The plants are then placed in a greenhouse at a temperature of approximately 20° C. and a relative humidity of 80%, in order to encourage the development of rust pustules.
Evaluation is carried out 10 days after the inoculation. In this connection, 0% means a degree of effectiveness corresponding to that of the control, while a degree of effectiveness of 100% means that no infestation is observed.

[4] = test system: Blumeria graminis f.sp. hordei; test: Blumeria graminis test (barley)/protective; assay type: in vivo; details: 168 h, 1000 ppm active substance, protective, evaluation 7 days after inoculation, read-out: degree of effectiveness
Procedure: Blumeria graminis Test (Barley)/Protective
as §1
For the testing of protective effectiveness, young plants are sprayed with the active substance composition in the application rate given.
After the spray coating has been dried on, the plants are dusted with spores of Blumeria graminis f.sp. hordei.
The plants are placed in a greenhouse at a temperature of approximately 20° C. and a relative humidity of approximately 80%, in order to encourage the development of mildew pustules.
Evaluation is carried out 7 days after the inoculation. In this connection, 0% means a degree of effectiveness corresponding to that of the control, while a degree of effectiveness of 100% means that no infestation is observed.

[5] = test system: Pyrenophora teres; test: Pyrenophora teres test (barley)/protective; assay type: in vivo; details: 500 ppm active substance, protective, evaluation 7-9 days after inoculation, read-out: degree of effectiveness
Procedure: Pyrenophora teres Test (Barley)/Protective
as §1
For the testing of protective effectiveness, young barley plants are sprayed with the active substance composition in the application rate given. 1 day after the treatment, the plants are inoculated with an aqueous suspension of the spores of Pyrenophora teres and then remain at 100% relative humidity and 20° C. for 48 h. Subsequently, the plants are placed in a greenhouse at 80% relative humidity and a temperature of 20° C.
Evaluation is carried out 7-9 days after the inoculation. In this connection, 0% means a degree of effectiveness corresponding to that of the control, while a degree of effectiveness of 100% means that no infestation is observed.

[6] = test system: Alternaria solani; test: Alternaria test (tomato)/protective; assay type: in vivo; details: 168 h, 500 ppm active substance, protective, evaluation 7 days after inoculation, read-out: degree of effectiveness
Procedure: Alternaria Test (Tomato)/Protective [table] To prepare a suitable active substance composition, 1 part by weight of active substance is mixed with the given amounts of solvent and emulsifier and the concentrate is diluted to the desired concentration using water. For the testing of protective effectiveness, young tomato plants are sprayed with the active substance composition in the application rate given. 1 day after the treatment, the plants are inoculated with a suspension of the spores of Alternaria solani and then stand at 100% relative humidity and 20° C. for 24 h. Subsequently, the plants stand at 96% relative humidity and a temperature of 20° C. Evaluation is carried out 7 days after the inoculation. In this connection, 0% means a degree of effectiveness corresponding to that of the control, while a degree of effectiveness of 100% means that no infestation is observed.

[7] = test system: Uromyces appendiculatus; test: Uromyces test (beans)/protective; assay type: in vivo; details: 240 h, 100 ppm active substance, protective, evaluation 10 days after inoculation, read-out: degree of effectiveness
Procedure: Uromyces Test (Beans)/Protective [table] To prepare a suitable active substance composition, 1 part by weight of active substance is mixed with the given amounts of solvents and emulsifier and the concentrate is diluted to the desired concentration using water. For the testing of protective effectiveness, young plants are sprayed with the active substance composition in the application rate given. After the spray coating has been dried on, the plants are inoculated with an aqueous suspension of the spores of the bean rust pathogen Uromyces appendiculatus and then remain in an incubation chamber at approximately 20° C. and 100% relative humidity for 1 day. The plants are then placed in a greenhouse at approximately 21° C. and a relative humidity of approximately 90%. Evaluation is carried out 10 days after the inoculation. In this connection, 0% means a degree of effectiveness corresponding to that of the control, while a degree of effectiveness of 100% means that no infestation is observed.

Row | logP ([1]; pH 2.3) | logP [1] | Structure (SMILES) | pest or weed control at 100 ppm [2] [%] | pest or weed control at 1000 ppm [3] [%] | pest or weed control at 1000 ppm [4] [%] | pest or weed control at 500 ppm [5] [%] | pest or weed control at 500 ppm [6] [%] | pest or weed control at 100 ppm [7] [%]
1 | 2.08 |  | Cc1cc(Oc2nc(C3(C)CC3(Cl)Cl)ns2)c(C)cc1/N=C/N1CCCCC1 (stereo not drawn) [Compound 26, 4-{[3-(2,2-Dichloro-1-methylcyclopropyl)-1,2,4-thiadiazol-5-yl]oxy}-2,5-dimethyl-N-[(1E)-piperidin-1-ylmethylidene]aniline] | ≥ 70 |  |  | ≥ 70 | ≥ 70 | ≥ 70
2 | 2.35 |  | CCC1(c2nsc(Oc3cc(C)c(/N=C/N4CCCCC4)cc3C)n2)C(C)C1(Cl)Cl (stereo not drawn) [Compound 28, 4-{[3-(2,2-Dichloro-1-ethyl-3-methylcyclopropyl)-1,2,4-thiadiazol-5-yl]oxy}-2,5-dimethyl-N-[(1E)-piperidin-1-ylmethylidene]aniline] | ≥ 70 |  |  | ≥ 70 |  | ≥ 70
3 | 1.6 |  | Cc1cc(Oc2nc(C3(C)CC3)ns2)c(C)cc1/N=C/N1CCC1 [Compound 31, N-[(1E)-Azetidin-1-ylmethylidene]-2,5-dimethyl-4-{[3-(1-methylcyclopropyl)-1,2,4-thiadiazol-5-yl]oxy}aniline] |  | ≥ 70 | ≥ 70 |  |  | 
4 | 1.96 |  | Cc1cc(Oc2nc(C3CC3C)ns2)c(C)cc1/N=C/N1CCC1 (stereo not drawn) [Compound 32, N-[(1E)-Azetidin-1-ylmethylidene]-2,5-dimethyl-4-{[3-(2-methylcyclopropyl)-1,2,4-thiadiazol-5-yl]oxy}aniline] |  |  |  |  |  | 
5 | 1.72 |  | CCN(C)C=Nc1cc(Cl)c(Oc2nc(C3(Cl)CC3)ns2)cc1C [Compound 33, N′-(5-Chloro-4-{[3-(1-chlorocyclopropyl)-1,2,4-thiadiazol-5-yl]oxy}-2-methylphenyl)-N-ethyl-N-methylimidoformamide] | ≥ 70 |  |  | ≥ 70 | ≥ 70 | 
6 | 1.98 |  | Cc1cc(Oc2nc(C3(Cl)CC3)ns2)c(Cl)cc1/N=C/N1CCCCC1 [Compound 34, 5-Chloro-4-{[3-(1-chlorocyclopropyl)-1,2,4-thiadiazol-5-yl]oxy}-2-methyl-N-[(1E)-piperidin-1-ylmethylidene]aniline] | ≥ 70 |  |  | ≥ 70 |  | 

More lines, now with the values behind:

Row | Structure (SMILES) | logP ([1]; pH 2.3) | logP [1] | pest or weed control at 100 ppm [2] [%] | pest or weed control at 1000 ppm [3] [%] | pest or weed control at 1000 ppm [4] [%] | pest or weed control at 500 ppm [5] [%] | pest or weed control at 500 ppm [6] [%] | pest or weed control at 100 ppm [7] [%]
7 | Cc1cc(Oc2nc(C3(C)CC3)ns2)c(C)cc1N [2,5-Dimethyl-4-{[3-(1-methylcyclopropyl)-1,2,4-thiadiazol-5-yl]oxy}aniline] | 3.08 |  |  |  |  |  |  | 
8 | Cc1cc(Oc2nc(C3(Cl)CC3)ns2)c(C)cc1/N=C/N1CCCCC1 [Compound 13, 4-{[3-(1-Chlorocyclopropyl)-1,2,4-thiadiazol-5-yl]oxy}-2,5-dimethyl-N-[(1E)-piperidin-1-yl-methylidene]aniline] | 1.76 |  | ≥ 70 | ≥ 70 | ≥ 70 | ≥ 70 |  | 
9 | Cc1cc(Oc2nc(C3CC3C)ns2)c(C)cc1/N=C/N1CCCCC1 (stereo not drawn) [Compound 16, 2,5-Dimethyl-4-{[3-(2-methylcyclopropyl)-1,2,4-thiadiazol-5-yl]oxy}-N-[(1E)-piperidin-1-ylmethylidene]aniline] | 1.78 |  | ≥ 70 | ≥ 70 | ≥ 70 | ≥ 70 | ≥ 70 | ≥ 70
10 | Cc1cc(Oc2nc(C3(Cl)CC3)ns2)c(C)cc1N=CN(C)C(C)C [Compound 18, N′-(4-{[3-(1-Chlorocyclopropyl)-1,2,4-thiadiazol-5-yl]oxy}-2,5-dimethylphenyl)-N-methyl-N-(1-methylethyl)imidoformamide] | 2.01 |  | ≥ 70 | ≥ 70 | ≥ 70 | ≥ 70 | ≥ 70 | ≥ 70
11 | Cc1cc(Oc2nc(C3(Cl)CC3)ns2)c(C)cc1N=CN(C)C [Compound 19, N′-(4-{[3-(1-Chlorocyclopropyl)-1,2,4-thiadiazol-5-yl]oxy}-2,5-dimethylphenyl)-N,N-dimethylimidoformamide] | 1.52 |  | ≥ 70 | ≥ 70 | ≥ 70 | ≥ 70 | ≥ 70 | ≥ 70
12 | Cc1cc(Oc2nc(C3CC3C)ns2)c(C)cc1N=CN(C)C (stereo not drawn) [Compound 20, N′-(2,5-Dimethyl-4-{[3-(2-methylcyclopropyl)-1,2,4-thiadiazol-5-yl]oxy}phenyl)-N,N-di-methylimidoformamide] | 1.62 |  | ≥ 70 | ≥ 70 | ≥ 70 | ≥ 70 | ≥ 70 | ≥ 70
13 | CCN(C)C=Nc1cc(C)c(Oc2nc(C3(C)CC3)cs2)cc1C [Compound 22, N′-(2,5-Dimethyl-4-{[4-(1-methylcyclopropyl)-1,3-thiazol-2-yl]oxy}phenyl)-N-ethyl-N-methylimidoformamide] | 1.86 | 4.96 |  | ≥ 70 | ≥ 70 |  | ≥ 70 | 
14 | Cc1cc(Oc2nc(C3(C)CC3)c(Cl)s2)c(C)cc1/N=C/N1CCCCC1 [Compound 24, 4-{[5-Chloro-4-(1-methylcyclopropyl)-1,3-thiazol-2-yl]oxy}-2,5-dimethyl-N-[(1E)-piperidin-1-ylmethylidene]aniline] | 2.34 |  | ≥ 70 | ≥ 70 | ≥ 70 | ≥ 70 | ≥ 70 | ≥ 70
